Measured values taken from patent publication US8394789B2, “(Dihydro)pyrrolo[2,1-α]isoquinolines” (MSD Oss B.V., priority 2008, dated 2013).

What follows are molecules tested against T1, human FSH receptor (Homo sapiens, UniProt P23945) (assay: hFSHRago (CHO luc): agonistic activity at the human FSH receptor expressed in CHO cells, CRE-luciferase reporter). Details: CHO cells stably transfected with human FSH receptor and CRE/luciferase reporter; 4 hours of incubation.
T1 construct: expressed in transfected cells
T1 sequence (P23945 18-695): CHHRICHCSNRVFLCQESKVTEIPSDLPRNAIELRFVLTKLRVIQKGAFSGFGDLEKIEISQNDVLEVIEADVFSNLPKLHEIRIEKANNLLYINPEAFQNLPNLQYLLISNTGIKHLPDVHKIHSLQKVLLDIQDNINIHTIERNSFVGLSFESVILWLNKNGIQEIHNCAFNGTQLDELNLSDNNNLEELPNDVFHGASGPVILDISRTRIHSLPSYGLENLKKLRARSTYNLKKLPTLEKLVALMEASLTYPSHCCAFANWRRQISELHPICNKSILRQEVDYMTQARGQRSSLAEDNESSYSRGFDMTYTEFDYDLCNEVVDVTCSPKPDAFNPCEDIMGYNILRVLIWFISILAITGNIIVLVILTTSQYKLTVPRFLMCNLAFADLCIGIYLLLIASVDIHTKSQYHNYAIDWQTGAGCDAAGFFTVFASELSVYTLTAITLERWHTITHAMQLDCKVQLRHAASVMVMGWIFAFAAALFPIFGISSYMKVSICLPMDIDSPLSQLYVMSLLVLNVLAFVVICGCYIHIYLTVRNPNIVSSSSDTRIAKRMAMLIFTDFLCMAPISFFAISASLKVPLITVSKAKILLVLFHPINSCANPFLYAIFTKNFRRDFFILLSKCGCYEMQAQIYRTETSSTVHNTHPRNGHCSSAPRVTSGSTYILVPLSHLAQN
Format: cell-based

Compared with `COc1cc2c(cc1CCCO)-c1c(-c3cccs3)cc(C(=O)N(C)C(C)(C)C)n1CC2` [Example 91d, 9-(3-hydroxy-propyl)-8-methoxy-1-thiophen-2-yl-5,6-dihydro-pyrrolo[2,1-α]iso-quinoline-3-carboxylic acid tert-butyl-methyl-amide], `COc1cc2c(cc1OCCO)-c1c(-c3cccs3)cc(C(=O)N(C)C(C)(C)C)n1CC2` [Example 65d, 9-(2-Hydroxy-ethoxy)-8-methoxy-1-thiophen-2-yl-5,6-dihydro-pyrrolo[2,1-α]iso-quinoline-3-carboxylic acid tert-butyl-methyl-amide] is 3.2-fold higher in EC50: 0.4 nM for the first, 1.3 nM for the second.

Compared with `COc1cc2c(cc1N1CCOCC1)-c1c(-c3cccnc3)cc(C(=O)N(C)C(C)(C)C)n1CC2` [Example 57, 8-Methoxy-9-morpholin-4-yl-1-pyridin-3-yl-5,6-dihydro-pyrrolo[2,1-α]isoquinoline-3-carboxylic acid tert-butyl-methyl-amide; trifluoro acetic acid], `COc1cc2c(cc1N1CCN(C)CC1)-c1c(-c3cccs3)cc(C(=O)N(C)C(C)(C)C)n1CC2` [Example 54, 8-Methoxy-9-(4-methyl-piperazin-1-yl)-1-thiophen-2-yl-5,6-dihydro-pyrrolo[2,1-α]isoquinoline-3-carboxylic acid tert-butyl-methyl-amide] is 1.6-fold higher in EC50: 276 nM for the first, 455 nM for the second.

Compared with `COc1cc2c(cc1OC(C)C)-c1c(-c3cccs3)cc(C(=O)N(C)[C@@H]3CCCN(C(C)=O)C3)n1CC2` [Example 34d, 9-Isopropoxy-8-methoxy-1-thiophen-2-yl-5,6-dihydro-pyrrolo[2,1-α]isoquinoline-3-carboxylic acid ((R)-1-acetyl-piperidin-3-yl)-methyl-amide], `COc1cc2c(cc1OC(C)C)-c1c(-c3cccs3)cc(C(=O)N[C@@H]3CCCN(C(=O)C4CCC4)C3)n1CC2` [Example 33c, 9-Isopropoxy-8-methoxy-1-thiophen-2-yl-5,6-dihydro-pyrrolo[2,1-α]isoquinoline-3-carboxylic acid ((R)-1-cyclobutanecarbonyl-piperidin-3-yl)-amide] is 2-fold lower in EC50: 496 nM for the first, 252 nM for the second. The second is the more potent here.

`COc1cc2c(cc1OC(C)C)-c1c(-c3cccs3)cc(C(=O)N3CC4CC(CN(C(C)=O)C4)C3)n1CC2` [Example 20, 1-[7-(9-isopopoxy-8-methoxy-1-thiophen-2-yl-5,6-dihydro-pyrrolo[2,1-α]isoquinoline-3-carbonyl)-3,7-diaza-bicyclo[3.3.1]non-3-yl]-ethanone] and `COc1cc2c(cc1OC(C)C)-c1c(-c3cccs3)cc(C(=O)N3CC4CC(C3)CN(C(=O)C3CCC3)C4)n1CC2` [Example 22, (7-Cyclobutanecarbonyl-3,7-diaza-bicyclo[3.3.1]non-3-yl)-(9-isopropoxy-8-methoxy-1-thiophen-2-yl-5,6-dihydro-pyrrolo[2,1-α]isoquinolin-3-yl)-methanone] are within 1.5-fold of each other in EC50: 8.2 nM for the first, 8.9 nM for the second.

Compared with `COCC(=O)Nc1cc2c(cc1OC)CCn1c(C(=O)N(C)C(C)(C)C)cc(-c3cccs3)c1-2` [Example 98, 8-Methoxy-9-(2-methoxy-acetylamino)-1-thiophen-2-yl-5,6-dihydro-pyrrolo[2,1-α]isoquinoline-3-carboxylic acid tert-butyl-methyl-amide], `COc1cc2c(cc1NC(C)C)-c1c(-c3cccs3)cc(C(=O)N(C)C(C)(C)C)n1CC2` [Example 51, 9-Isopropylamino-8-methoxy-1-thiophen-2-yl-5,6-dihydro-pyrrolo[2,1-α]isoquinoline-3-carboxylic acid tert-butyl-methyl-amide] is 3-fold higher in EC50: 1.4 nM for the first, 4.2 nM for the second. The first is the more potent here.

First: CCOC(=O)c1cc2c(cc1OC)CCn1c(C(=O)N3CCCN(C(=O)C4CCC4)CC3)cc(-c3cccs3)c1-2 [Example 84, 3-(4-Cyclobutanecarbonyl-[1,4]diazepane-1-carbonyl)-8-methoxy-1-thiophen-2-yl-5,6-dihydro-pyrrolo[2,1--α]isoquinoline-9-carboxylic acid ethyl ester]
Second: COc1cc2c(cc1OC)-c1c(-c3cccs3)cc(C(=O)N3CCC[C@H](NC(=O)C4CCC4)C3)n1CC2 [Example 105, Cyclobutanecarboxylic acid [(S)-1-(8,9-dimethoxy-1-thiophen-2-yl-5,6-dihydro-pyrrolo[2,1-α]isoquinoline-3-carbonyl)-piperidin-3-yl]-amide]
The EC50 of the first is 600-fold lower: 2.9 nM for the first, 1730 nM for the second. The first is the more potent here.

Compared with `COc1cc2c(cc1OC(C)C)-c1c(Br)cc(C(=O)N(C)C(C)(C)C)n1CC2` [Example 37c, 1-Bromo-9-isopropoxy-8-methoxy-5,6-dihydro-pyrrolo[2,1-α]isoquinoline-3-carboxylic acid tert-butyl-methyl-amide], `COc1cc2c(cc1OC(C)C)-c1c(-c3cccs3)c(C=NO)c(C(=O)N(C)C(C)(C)C)n1CC2` [Example 42, 2-(Hydroxyimino-methyl)-9-isopropoxy-8-methoxy-1-thiophen-2-yl-5,6-dihydro-pyrrolo[2,1-α]isoquinoline-3-carboxylic acid tert-butyl-methyl-amide] is 200-fold lower in EC50: 234 nM for the first, 1.2 nM for the second.

Compared with `COc1cc2c(cc1OC(C)C)-c1c(-c3ccccn3)cc(C(=O)N3CCCN(C(=O)c4ccccn4)CC3)n1CC2` [Example 35, (9-Isopropoxy-8-methoxy-1-pyridin-2-yl-5,6-dihydro-pyrrolo[2,1-α]isoquinolin-3-yl)-[4-(pyridine-2-carbonyl)-[1,4]diazepan-1-yl]-methanone; trifluoro acetic acid], `COc1cc2c(cc1OC(C)C)-c1c(-c3cccs3)c(Cl)c(C(=O)N3CCCN(C(C)=O)CC3)n1CC2` [Example 12b, 1-[4-(2-Chloro-9-isopropoxy-8-methoxy-1-thiophen-2-yl-5,6-dihydro-pyrrolo[2,1-α]isoquinoline-3-carbonyl)-[1,4]diazepan-1-yl]-ethanone] is 130-fold lower in EC50: 244 nM for the first, 1.9 nM for the second. The second is the more potent here.

Going from `CCOC(=O)Nc1cc2c(cc1OC)CCn1c(C(=O)N3CCCC3(C)C)cc(-c3cccs3)c1-2` [Example 99, [3-(2,2-Dimethyl-pyrrolidine-1-carbonyl)-8-methoxy-1-thiophen-2-yl-5,6-dihydro-pyrrolo[2,1-α]isoquinolin-9-yl]-carbamic acid ethyl ester] to `COc1cc2c(cc1OC1CCCCO1)-c1c(-c3cccs3)cc(C(=O)N(C)C(C)(C)C)n1CC2` (stereo not drawn) [Example 69, 8-Methoxy-9-(tetrahydro-pyran-2-yloxy)-1-thiophen-2-yl-5,6-dihydro-pyrrolo[2,1-α]isoquinoline-3-carboxylic acid tert-butyl-methyl-amide], the EC50 falls from 22 nM to 6.9 nM (3.2-fold).

Compared with `COc1cc2c(cc1OCCN(C)C)-c1c(-c3cccs3)cc(C(=O)N(C)C(C)(C)C)n1CC2` [Example 73, 9-(2-Dimethylamino-ethoxy)-8-methoxy-1-thiophen-2-yl-5,6-dihydro-pyrrolo[2,1-α]isoquinoline-3-carboxylic acid tert-butyl-methyl-amide; trifluoro acetic acid], `COc1cc2c(cc1OCCS(C)(=O)=O)-c1c(-c3cccs3)cc(C(=O)N(C)C(C)(C)C)n1CC2` [Example 72, 9-(2-Methanesulfonyl-ethoxy)-8-methoxy-1-thiophen-2-yl-5,6-dihydro-pyrrolo[2,1-α]isoquinoline-3-carboxylic acid tert-butyl-methyl-amide] is 7-fold lower in EC50: 118 nM for the first, 16.9 nM for the second. The second is the more potent here.

Work on `COc1cc2c(cc1CC(C)C)-c1c(-c3cccs3)cc(C(=O)N(C)C(C)(C)C)n1CC2` [Example 58c, 9-Isobutyl-8-methoxy-1-thiophen-2-yl-5,6-dihydro-pyrrolo[2,1-α]isoquinoline-3-carboxylic acid tert-butyl-methyl-amide] yielded an EC50 of 4.3 nM.
